According to patent US11999715B2, “ASK1 inhibiting agents” (BIOGEN MA INC., priority 2018, dated 2024):

What was measured:
ASK1/MAP3K5 = target: T1, ASK1/MAP3K5 (Homo sapiens, UniProt Q99683); experiment: ASK1/MAP3K5 kinase assay by Reaction Biology Corp. (headed ASK1 TR-FRET Assay); assay type: biochemical; conditions: 20 μM myelin basic protein, 10 μM ATP, class symbols
T1 sequence (Q99683 1-1374): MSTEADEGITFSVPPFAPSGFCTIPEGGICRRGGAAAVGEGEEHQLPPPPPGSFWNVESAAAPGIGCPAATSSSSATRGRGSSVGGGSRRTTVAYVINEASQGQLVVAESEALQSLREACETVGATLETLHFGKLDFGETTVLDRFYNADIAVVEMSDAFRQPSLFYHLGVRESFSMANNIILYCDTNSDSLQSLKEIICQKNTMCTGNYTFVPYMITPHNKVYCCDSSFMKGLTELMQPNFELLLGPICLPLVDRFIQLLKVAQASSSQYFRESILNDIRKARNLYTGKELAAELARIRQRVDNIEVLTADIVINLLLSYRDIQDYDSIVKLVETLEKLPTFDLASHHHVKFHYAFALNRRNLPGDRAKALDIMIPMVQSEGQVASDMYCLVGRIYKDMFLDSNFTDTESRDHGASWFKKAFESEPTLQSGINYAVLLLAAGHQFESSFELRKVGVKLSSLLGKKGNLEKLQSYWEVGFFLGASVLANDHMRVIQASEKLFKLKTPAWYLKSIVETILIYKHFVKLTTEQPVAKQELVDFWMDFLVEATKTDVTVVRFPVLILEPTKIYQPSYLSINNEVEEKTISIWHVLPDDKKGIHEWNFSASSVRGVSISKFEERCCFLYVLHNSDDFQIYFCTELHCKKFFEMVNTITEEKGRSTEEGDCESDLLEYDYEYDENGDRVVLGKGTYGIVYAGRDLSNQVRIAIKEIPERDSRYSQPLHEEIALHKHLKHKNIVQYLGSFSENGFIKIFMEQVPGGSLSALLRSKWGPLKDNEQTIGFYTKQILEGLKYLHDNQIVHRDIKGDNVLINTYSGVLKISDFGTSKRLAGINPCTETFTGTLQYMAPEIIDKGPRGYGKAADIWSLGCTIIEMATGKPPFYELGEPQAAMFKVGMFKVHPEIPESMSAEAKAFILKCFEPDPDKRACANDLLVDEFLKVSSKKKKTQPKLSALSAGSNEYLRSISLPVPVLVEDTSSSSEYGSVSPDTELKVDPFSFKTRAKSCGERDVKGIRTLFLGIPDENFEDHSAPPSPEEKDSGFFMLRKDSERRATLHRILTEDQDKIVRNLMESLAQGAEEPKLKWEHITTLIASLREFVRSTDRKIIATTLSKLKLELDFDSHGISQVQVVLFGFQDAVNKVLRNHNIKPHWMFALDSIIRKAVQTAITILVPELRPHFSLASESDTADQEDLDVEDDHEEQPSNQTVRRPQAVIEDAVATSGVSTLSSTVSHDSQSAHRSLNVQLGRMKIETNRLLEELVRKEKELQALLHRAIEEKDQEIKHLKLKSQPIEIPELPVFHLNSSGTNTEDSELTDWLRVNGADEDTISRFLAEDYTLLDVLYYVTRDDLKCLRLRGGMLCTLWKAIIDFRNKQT
Procedure: Example 111: Brief Description of ASK1 TR-FRET Assay The protein kinase inhibitory activity of the compounds described herein were tested using the ASK1/MAP3K5 assay by Reaction Biology Corp. (Malvern, PA). The assay procedure follows (and is also available on the Reaction Biology Corp. website). Base Reaction Buffer: 20 mM Hepes (pH 7.5), 10 mM MgCl2, 1 mM EGTA, 0.02% Brij35, 0.02 mg/mL BSA, 0.1 mM Na3VO4, 2 mM DTT, 1% DMSO; Substrate: 20 μM of myelin basic protein (MBP) and 10 μM ATP; Protein kinase: ASK1/MAP3K5. Reaction Procedure: • 1. Prepare indicated substrate in freshly prepared Base Reaction Buffer. • 2. Deliver any required cofactors to the substrate solution. • 3. Deliver indicated kinase into the substrate solution and gently mix. • 4. Deliver compounds in DMSO into the kinase reaction mixture by Acoustic; technology (Echo550; nanoliter range), incubate for 20 minutes at room temperature. • 5. Deliver ^33P-ATP (specific activity 10 μCi/μL) into the reaction mixture to initiate the reaction. • 6. Incubate kinase reaction for 2 hours at room temperature. • 7. Reactions are spotted onto P81 ion exchange paper. • 8. Detect kinase activity by filter-binding method.

[1] = target: T2, ASK1 T838 auto phosphorylation (Homo sapiens, UniProt Q99683); experiment: ASK1 (AUTO PHOS T838) assay, MSD format, in HEK-293T cells transfected with ASK1-V5; assay type: cell-based; conditions: ASK1 T838 auto phosphorylation in HEK-293T cells, 1 hr compound incubation; class symbols
T2 sequence (Q99683 1-1374): T1 sequence (Q99683 1-1374)
Procedure: Example 112: Brief Description of ASK1(AUTO PHOS T838) Assay ASK1 T838 auto phosphorylation was measured in HEK-293T cells using MSD assay format. HEK 293T cells were seeded in 15 cm plates at a density of 18 million cells and 20 mL DMEM with 10% FBS, Pen/Strep media. The plates were incubated at 37° C. overnight. Media on plates was changed to OPTI-MEM, serum free media and cells were transfected with 9 μg of ASK1-V5 tagged full length plasmid using Lipofectamine 2000 (Invitrogen) and the plates were incubated at 37° C. overnight. Cells were trypsinized, counted on Nexcellometer and plated into 96 well tissue culture plates with 100,000 cells/well and 200 μL media. Cells were incubated for 4 hr at 37° C. then ASK1 compounds were added using a HP 300e. Compounds were tested at 20 μM with 3 fold, 10 point dilution points then incubated for 1 hr at 37° C. A lysis buffer (Cell Signaling) was prepared with protease and phosphatase inhibitor and maintained at 4° C. until use. Media from cells was discarded and 120 μL of cold lysis buffer was added to the cells, the plate was shaken 4° C. for 1 hr. Lysate was mixed using Apricot liquid handler; aspirating up and down 16 times at high speed using 50 μL volume. […] Plates were then incubated on a plate shaker overnight at 4° C. Plates were washed 3× with MSD wash buffer and 50 μL of rabbit anti-pASK1 T838 antibody was added to the wells and incubated for 2 hr at room temperature on a plate shaker. Plates were then washed and 50 μL of goat anti-rabbit sulfa-tag (1:500 dilution) was added to wells, and incubated for 1 hr at room temperature on a plate shaker. […] Plates were immediately read on a MSD Instrument Reader where chemoluminescence signal was measured. Data was analyzed using Graph Pad or Genedata, the data was normalized and plotted, % activity versus log of compound concentration. The IC50 values were obtained from a 4 parameter fit. The compounds described herein were tested for in the above cell-based assay.

IC50 (ASK1/MAP3K5)	IC50 [1]	SMILES
≤ 100 nM	1000 to 10000 nM	COc1nn(C)cc1C(=O)Nc1cccc(-c2nncn2C(C)CO)n1 (racemic) [Example 35, rac-N-(6-(4-(1-Hydroxypropan-2-yl)-4H-1,2,4-triazol-3-yl)pyridin-2-yl)-3-methoxy-1-methyl-1H-pyrazole-4-carboxamide]
≤ 100 nM	≤ 1000 nM	COc1nn(C)cc1C(=O)Nc1cccc(-c2nncn2[C@@H](C)C(F)F)n1 (single isomer, unassigned) [Example 27]
≤ 100 nM	≤ 1000 nM	COc1nn(C)cc1C(=O)Nc1cccc(-c2nncn2[C@H](C)C(F)F)n1 (single isomer, unassigned) [Example 28]
≤ 100 nM	≤ 1000 nM	COc1nn(C)cc1C(=O)Nc1cccc(-c2nncn2[C@H]2CCC2(F)F)n1 (single isomer, unassigned) [Example 31]
100 to 1000 nM	≤ 1000 nM	COc1nn(C)cc1C(=O)Nc1cccc(-c2nncn2[C@@H]2CCC2(F)F)n1 (single isomer, unassigned) [Example 32]
≤ 100 nM	≤ 1000 nM	COC[C@H](C)n1cnnc1-c1cccc(NC(=O)c2cn(C)nc2OC)n1 (single isomer, unassigned) [Example 33]
100 to 1000 nM	≤ 1000 nM	COC[C@@H](C)n1cnnc1-c1cccc(NC(=O)c2cn(C)nc2OC)n1 (single isomer, unassigned) [Example 34]
≤ 100 nM	≤ 1000 nM	COc1nn(C)cc1C(=O)Nc1cccc(-c2nncn2[C@H](C)CO)n1 (single isomer, unassigned) [Example 36]
≤ 100 nM	1000 to 10000 nM	COc1nn(C)cc1C(=O)Nc1cccc(-c2nncn2[C@@H](C)CO)n1 (single isomer, unassigned) [Example 37]
100 to 1000 nM	1000 to 10000 nM	COc1nn(C)cc1C(=O)Nc1cccc(-c2nncn2[C@H]2CCN(C(=O)OC(C)(C)C)C2)n1 (single isomer, unassigned) [Example 40]
≤ 100 nM	≤ 1000 nM	COc1nn(C)cc1C(=O)Nc1cccc(-c2nncn2[C@@H]2CCOC2)n1 (single isomer, unassigned) [Example 109]
≤ 100 nM	≤ 1000 nM	COc1nn(C)cc1C(=O)Nc1cccc(-c2nncn2[C@H]2CCOC2)n1 (single isomer, unassigned) [Example 110]
≤ 100 nM	≤ 1000 nM	CCOc1nn(C)cc1C(=O)Nc1cccc(-c2nncn2C(C)C)n1 [Example 3, 3-Ethoxy-N-(6-(4-isopropyl-4H-1,2,4-triazol-3-yl)pyridin-2-yl)-1-methyl-1H-pyrazole-4-carboxamide]
100 to 1000 nM	1000 to 10000 nM	COCc1nn(C)cc1C(=O)Nc1cccc(-c2nncn2C(C)C)n1 [Example 4, N-(6-(4-Isopropyl-4H-1,2,4-triazol-3-yl)pyridin-2-yl)-3-(methoxymethyl)-1-methyl-1H-pyrazole-4-carboxamide]
100 to 1000 nM	1000 to 10000 nM	CC(C)n1cnnc1-c1cccc(NC(=O)c2cn(C)nc2C(F)(F)F)n1 [Example 5, N-(6-(4-Isopropyl-4H-1,2,4-triazol-3-yl)pyridin-2-yl)-1-methyl-3-(trifluoromethyl)-1H-pyrazole-4-carboxamide]
100 to 1000 nM	≤ 1000 nM	CC(C)n1cnnc1-c1cccc(NC(=O)c2cn(C)nc2C(F)F)n1 [Example 6, 3-(Difluoromethyl)-N-(6-(4-isopropyl-4H-1,2,4-triazol-3-yl)pyridin-2-yl)-1-methyl-1H-pyrazole-4-carboxamide]
≤ 100 nM	≤ 1000 nM	COc1nn(Cc2ccccc2)cc1C(=O)Nc1cccc(-c2nncn2C(C)C)n1 [Example 8, 1-Benzyl-N-(6-(4-isopropyl-4H-1,2,4-triazol-3-yl)pyridin-2-yl)-3-methoxy-1H-pyrazole-4-carboxamide]
100 to 1000 nM	≤ 1000 nM	CC(C)n1cnnc1-c1cccc(NC(=O)c2cnn(C(C)(C)C)c2)n1 [Example 9, 1-(tert-Butyl)-N-(6-(4-isopropyl-4H-1,2,4-triazol-3-yl)pyridin-2-yl)-1H-pyrazole-4-carboxamide]
	≤ 1000 nM	COc1nn(C)cc1C(=O)Nc1cccc(-c2nncn2C(C)C(F)(F)F)n1 (stereo not drawn) [Example 10, 3-Methoxy-1-methyl-N-(6-(4-(1,1,1-trifluoropropan-2-yl)-4H-1,2,4-triazol-3-yl)pyridin-2-yl)-1H-pyrazole-4-carboxamide]
100 to 1000 nM	≤ 1000 nM	COc1nn(C)cc1C(=O)Nc1cccc(-c2nncn2[C@H](C)C(F)(F)F)n1 [Example 11, (R)-3-Methoxy-1-methyl-N-(6-(4-(1,1,1-trifluoropropan-2-yl)-4H-1,2,4-triazol-3-yl)pyridin-2-yl)-1H-pyrazole-4-carboxamide]
	≤ 1000 nM	CCCn1cc(C(=O)Nc2cccc(-c3nncn3C(C)C)n2)c(OC)n1 [Example 58, N-(6-(4-Isopropyl-4H-1,2,4-triazol-3-yl)pyridin-2-yl)-3-methoxy-1-propyl-1H-pyrazole-4-carboxamide]
	≤ 1000 nM	COc1nn(-c2ccccc2)cc1C(=O)Nc1cccc(-c2nncn2C(C)C)n1 [Example 60, N-(6-(4-Isopropyl-4H-1,2,4-triazol-3-yl)pyridin-2-yl)-3-methoxy-1-phenyl-1H-pyrazole-4-carboxamide]
	≤ 1000 nM	COc1nn(CC2CC2)cc1C(=O)Nc1cccc(-c2cncn2C(C)C)n1 [Example 91, 1-(Cyclopropylmethyl)-N-(6-(1-isopropyl-1H-imidazol-5-yl)pyridin-2-yl)-3-methoxy-1H-pyrazole-4-carboxamide]
